How the values were obtained:
Malat1 RNA = Malat1 RNA expression level after intraventricular administration (target gene suppression effect); type: in vivo, mouse; details: 7 days
Experimental: Seven-week-old female ICR mice anesthetized with 2.5 to 4% isoflurane were fixed to a brain stereotaxic apparatus. Then, skin between the ears was cut open 2 to 3 cm anteroposteriorly, and perforated 1 mm leftward and 0.2 mm posteriorly from the bregma using a 1 mm diameter drill. A Hamilton syringe was filled with the nucleic acid agent. Through the perforated site, a needle was inserted approximately 3 mm deep. The ASO at a dose of 0.95 nmol (5 μg) per mouse was administered into the left lateral ventricle (n=4 to 7/group). The group to which ASO and TGN-073 were coadministered (hereinafter, the group is referred to as the “ASO/TGN-073 coadministration group”) means that ASO mixed with TGN-073 was administered. The group to which only ASO was administered (hereinafter, the group is referred to as the “ASO single administration group”) means that only ASO was administered without being mixed with TGN-073. The dose of TGN-073 in the ASO/TGN-073 coadministration group was 0.25 mg per mouse. After the intraventricular administration, the skin was sutured with a nylon thread. In addition, mice to which only TGN-073 was administered (hereinafter, the mice are referred to as the “TGN-073 administration group”) and mice to which only PBS was administered (hereinafter, the mice are referred to as the “PBS administration group”) were produced as controls.
A left hippocampus was extirpated from each of the mice at 3 hours or 7 days after the intraventricular administration. Using an IsogenI kit (GeneDesign Inc.), RNA was extracted from the left hippocampus extirpated. A cDNA was synthesized using Transcriptor Universal cDNA Master, DNase (Roche Diagnostics) in accordance with the protocol.
Next, quantitative RT-PCR was performed with TaqMan (Roche Applied Science). Primers used in quantitative RT-PCR were products designed and manufactured by Thermo Fisher Scientific Inc. (formerly known as Life Technologies Corp.) on the basis of the various numbers of genes. Amplification conditions (temperature and time) were as follows: one cycle—95 °C for 15 seconds, 60 °C for 30 seconds, and 72 °C for 1 second—was repeated 40 times. The ratio of the expression amount of Malat1 RNA to the expression amount of Actb mRNA (internal standard gene) was calculated, and a value standardized with respect to the value of the PBS-treated group was determined as a relative Malat1 RNA level.
In this Example, the ASO targeted at Malat1, and used in Example 1 (the ASO described in Table 1) was used. Performed in accordance with Example 1 were: the preparation of a nucleic acid; an in vivo experiment; and the evaluation of the intracerebral ASO concentration (the amount of the nucleic acid delivered to the brain); and the target gene suppression effect. […]

[1] = VHH antibody concentration in brain tissue after intraventricular administration (Alexa 647 fluorescence); type: in vivo; details: coadministered with VHH antibody (29 μmol/mouse), TGN-073 250 μg/mouse, left hippocampus, left occipital cortex, left basal ganglia, 3 hours
Experimental: In this Example, a fluorescence-labeled camelized single domain antibody (VHH antibody; Alpaca anti-Rabbit IgG Nano (VHH) Recombinant Secondary Antibody, Alexa Fluor (trademark)647, #SA5-10327, Invitrogen) alone or in combination with TGN-073 (250 μg/mouse) was intraventricularly administered at a dose of […] to an 8-week-old ICR mouse (female). Hereinafter, the mice to which the VHH antibody alone was intraventricularly administered are referred to as the “VHH antibody single administration group”, and the mice to which the VHH antibody and TGN-073 were intraventricularly administered together are referred to as the “VHH antibody/TGN-073 coadministration group”. Brain tissue samples of the left hippocampus, left occipital cortex, and left basal ganglia were collected from the mice at 3 hours after the intraventricular administration. Using a fluorescence plate reader (M1000Pro, Tecan Group Ltd.), the Alexa 647 fluorescence intensity per brain weight was measured to thereby evaluate the concentration of the VHH antibody in each brain tissue.

[2] = IgG antibody concentration in left hippocampus after intraventricular administration (Alexa 647 fluorescence); type: in vivo; details: coadministered with IgG antibody (10 μg/mouse), TGN-073 250 μg/mouse, 3 hours
Experimental: In this Example, an Alexa 647 fluorescence-labeled IgG antibody (Goat anti-Rabbit IgG (H+L) Highly Cross-Adsorbed Secondary Antibody, Alexa Fluor (trademark)647, #A-21245, Invitrogen) alone or in combination with TGN-073 (250 μg/mouse) was administered at a dose of 10 μg/mouse to the left lateral ventricle of an 8-week-old ICR mouse (female). Hereinafter, the mice to which the IgG antibody alone was intraventricularly administered are referred to as the “IgG antibody single administration group”, and the mice to which the IgG antibody and TGN-073 were intraventricularly administered together are referred to as the “IgG/TGN-073 coadministration group”. Brain tissue samples of the left hippocampus were collected from the mice at 3 hours after the intraventricular administration. Using a fluorescence plate reader (M1000Pro, Tecan Group Ltd.), the Alexa 647 fluorescence intensity per brain weight was measured to thereby evaluate the concentration of the IgG antibody.

Aquaporin-4 = details: as disclosed in WO2017/150704 and Huber V. J. et al., NeuroReport, 2018; cited from earlier work

For `O=S(=O)(Nc1ncccc1OCc1ccccc1)c1ccccc1` [TGN-073, N-(3-benzyloxypyridin-2-yl)-benzene-sulfonamide], the “Target gene (Malat1) suppression effect in the hippocampus vs ASO single administration” value (Malat1 RNA; coadministered with 2′-O-MOE-modified ASO (1.7 nmol, 12.5 μg)) was “an augmentation of the target gene suppression effect”, the “Target gene (Malat1) suppression effect in the hippocampus vs nucleic acid agent alone” value (Malat1 RNA; coadministered with ASO, HDO or Chol-HDO (0.95 nmol), any of the groups) was “marked enhancement” and the “Suppression effect on the Malat1 gene in the hippocampus vs ASO single administration” value (Malat1 RNA; coadministered with Malat1-targeting ASO (0.95 nmol), TGN-073 0.25 mg per mouse) was “markedly enhanced”. The “Target gene (Malat1) suppression effect in the lumbar cord portion vs ASO single administration” value (Malat1 RNA; coadministered with Malat1-targeting ASO (1.7 nmol, 12.5 μg)) was “marked enhancement”, the “VHH antibody concentration in the central nervous system vs VHH antibody single administration” value [1] was “dramatic increase” and the “IgG antibody concentration in the central nervous system (left hippocampus) vs IgG antibody single administration” value [2] was “dramatic increase”. For the same compound, the “Promotion of the function of Aquaporin-4” value (Aquaporin-4) was “can promote the function of Aquaporin-4”.

Source: patent US20260347843A1, “NERVOUS SYSTEM DELIVERY ENHANCER” (priority 2022, published 2026)
